{
  "source": "paper PMC5384001",
  "about": "(Scientific Reports, 2017)",
  "biological_target": "T1, GluD2-Lc(D542Y)-(HS2)GluN1 (Rattus norvegicus, UniProt Q63226, A654T/A766F/D542Y/D767R/N763E/R768S/T764L/V761T/V765F)",
  "T1 construct": "the function of full-length receptors as well, we introduced them into the GluD2 lurcher mutant (GluD2-Lc); expressed in transfected cells; host or cells: Xenopus laevis oocytes injected with cRNA",
  "T1 sequence (Q63226 24-1007 D542Y/A654T/V761T/N763E/T764L/V765F/A766F/D767R/R768S)": "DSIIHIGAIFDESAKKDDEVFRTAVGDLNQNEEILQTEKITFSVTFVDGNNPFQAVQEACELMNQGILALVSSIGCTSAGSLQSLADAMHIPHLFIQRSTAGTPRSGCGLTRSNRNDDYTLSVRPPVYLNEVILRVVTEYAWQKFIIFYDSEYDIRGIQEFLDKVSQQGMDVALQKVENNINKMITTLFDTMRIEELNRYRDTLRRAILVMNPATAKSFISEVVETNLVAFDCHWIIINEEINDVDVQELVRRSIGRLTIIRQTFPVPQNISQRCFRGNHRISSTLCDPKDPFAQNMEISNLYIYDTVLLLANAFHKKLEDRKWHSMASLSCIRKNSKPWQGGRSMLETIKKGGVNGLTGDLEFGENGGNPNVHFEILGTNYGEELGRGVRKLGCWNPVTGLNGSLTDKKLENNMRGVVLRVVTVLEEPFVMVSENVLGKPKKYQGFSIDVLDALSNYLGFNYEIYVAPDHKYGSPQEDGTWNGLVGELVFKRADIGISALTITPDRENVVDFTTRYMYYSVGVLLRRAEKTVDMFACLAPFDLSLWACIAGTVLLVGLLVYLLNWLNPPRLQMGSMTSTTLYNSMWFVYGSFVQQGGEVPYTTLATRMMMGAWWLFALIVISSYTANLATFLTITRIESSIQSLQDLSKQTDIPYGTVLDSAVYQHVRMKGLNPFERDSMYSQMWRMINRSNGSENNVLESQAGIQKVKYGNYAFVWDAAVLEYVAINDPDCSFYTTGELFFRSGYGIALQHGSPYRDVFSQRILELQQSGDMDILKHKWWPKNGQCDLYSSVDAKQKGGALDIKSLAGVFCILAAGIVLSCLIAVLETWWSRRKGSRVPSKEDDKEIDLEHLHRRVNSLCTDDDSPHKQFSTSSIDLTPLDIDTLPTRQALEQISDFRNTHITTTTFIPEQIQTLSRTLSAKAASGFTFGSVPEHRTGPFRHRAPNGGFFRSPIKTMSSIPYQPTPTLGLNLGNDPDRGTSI",
  "assay": "Two-electrode voltage clamp in Xenopus oocytes, inhibition of spontaneous currents",
  "type": "cell-based",
  "excerpt": "All cDNAs for expression in Xenopus oocytes were cloned into the vector pSGEM[30]. Point mutants of GluD2-Lc were constructed by overlap extension PCR with mutagenic oligonucleotide primers. The GluD2-Lc-(H)GluN1 chimera was constructed by transferring the S1- and S2-encoding sequences from GluD2-LBD-(H)GluN1 to GluD2-Lc via overlap extension PCR using tail primers. The S1 and S2 sequences were transferred separately, yielding GluD2-Lc-(HS1)GluN1 and GluD2-Lc-(HS2)GluN1 constructs. GluD2-Lc-(H)GluN1 was then produced from these by another overlap extension PCR. Complementary RNA (cRNA) for injection into oocytes was synthesised from 1 μg of linearised template DNA with the mMESSAGE mMACHINE in vitro transcription kit (Ambion, Austin, TX, USA).\nOocytes were obtained by surgically removing parts of the ovaries from Xenopus laevis (Nasco, Fort Atkinson, WI, USA) anaesthetised with 1.5 g/L 3-aminobenzoic acid ethylester (Sigma, Taufkirchen, Germany). The ovary clippings were digested with 784 U/mL (4 mg/mL) collagenase type I (Worthington, Lakewood, NJ, USA) in Ca^2+-free Barth’s solution (88 mM NaCl, 1.1 mM KCl, 2.4 mM NaHCO3, 0.8 mM MgSO4, 15 mM HEPES-NaOH, pH 7.6) with gentle agitation for 1.5–2 h at 20 °C to remove the follicular cell layer. After stopping the collagenase digestion by washing with Barth’s solution (88 mM NaCl, 1.1 mM KCl, 2.4 mM NaHCO3, 0.3 mM Ca(NO3)2, 0.4 mM CaCl2, 0.8 mM MgSO4, 15 mM HEPES-NaOH, pH 7.6), defolliculated oocytes of stages V and VI were selected and maintained at 16 °C in Barth’s solution supplemented with 100 μg/mL gentamicin, 40 μg/mL streptomycin, and 63 μg/mL penicillin. Oocytes were injected with 11 ng cRNA (10 ng of each cRNA for co-expression of GluN1 and GluN2A) using a nanoliter injector (WPI, Sarasota, FL, USA). Four days after cRNA injection, current responses were recorded under voltage clamp at –70 mV with a Turbo Tec-10CD amplifier (npi electronic, Tamm, Germany) controlled by Patchmaster software (HEKA, Lambrecht, Germany). Currents were filtered with a 20 Hz low-pass filter and then digitised with a sampling rate of 50 Hz. Recording electrodes were pulled from borosilicate glass (Hilgenberg, Malsfeld, Germany) with an L/M-3P-A vertical pipette puller (List-Medical), filled with 3 M KCl, and had resistances of 0.5–5 MΩ (voltage electrode) or 0.5–1.5 MΩ (current electrode). Recordings were performed in a 50 μL chamber under constant superfusion with extracellular solution at a flow rate of 3–5 mL/min. […] Finally, Ba-NFR and then NMDGR were applied again to check for reversibility.",
  "data": [
    {"smiles": "N[C@H](CO)C(=O)O", "note": "[D-serine]", "values": [
      {"measurement": "D-serine efficacy Mean ± SEM", "setting": "fraction of spontaneous current inhibited by D-serine", "result": "–3.4 ± 0.5%"},
      {"measurement": "sensitivity to D-serine", "setting": "inhibition of spontaneous currents", "result": "insensitive"}
    ]}
  ]
}
